In US5569658A, “Tricyclic derivatives” (Zeneca Limited, priority 1993, dated 1996):

How the values were obtained:
liver hepatocyte = assay: in vivo assay: inhibition of TGFα-stimulated liver hepatocyte growth in rats (Test (c)); design: species or system rat; details: TGFα 400 μg/kg subcutaneously; for ED50: Rattus norvegicus, Hepatocyte, male rats, usually oral, approximate ED50, read-out: ED50 in Test (c), inhibition of liver hepatocyte proliferation (BrdU uptake)
Description: (c) An in vivo assay in a group of male rats which determines the ability of a test compound (usually administered orally as a ball-milled suspension in 0.5% polysorbate) to inhibit the stimulation of liver hepatocyte growth caused by the administration of the growth factor TGFα (400 μg/kg subcutaneously, usually dosed twice, 3 and 7 hours respectively after the administration of the test compound).
In a control group of rats, the administration of TGFα causes on average a 5-fold stimulation of liver hepatocyte growth.
Cell-growth in the control and test animals is determined as follows:
On the morning of the day after the dosing of the test compound (or 0.5% polysorbate in the control group), the animals are dosed with bromodeoxyuridine (BrdU; 100 mg/kg intraperitoneally). The animals are killed four hours later and the livers are excised. […] Further tests were carried out using a range of doses of the test compounds to allow the calculation of an approximate ED50 value for the inhibition of liver hepatocyte proliferation as determined by inhibition of the uptake of BrdU.

receptor tyrosine kinase = molecular target: T1, receptor tyrosine kinase (Homo sapiens, UniProt P00533); assay: in vitro assay: inhibition of the enzyme receptor tyrosine kinase (Test (a)); format: biochemical; details: partially purified enzyme from A-431 cells; EGF; peptide substrate, [γ-32P]ATP; 25° C., 10 minutes
T1 construct: Receptor tyrosine kinase was obtained in partially purified form from A-431 cells; endogenous in cells; host or cells: A-431 cells (human vulval carcinoma); partially purified, Triton X-100 solubilised membrane fraction
T1 sequence (P00533 25-1210): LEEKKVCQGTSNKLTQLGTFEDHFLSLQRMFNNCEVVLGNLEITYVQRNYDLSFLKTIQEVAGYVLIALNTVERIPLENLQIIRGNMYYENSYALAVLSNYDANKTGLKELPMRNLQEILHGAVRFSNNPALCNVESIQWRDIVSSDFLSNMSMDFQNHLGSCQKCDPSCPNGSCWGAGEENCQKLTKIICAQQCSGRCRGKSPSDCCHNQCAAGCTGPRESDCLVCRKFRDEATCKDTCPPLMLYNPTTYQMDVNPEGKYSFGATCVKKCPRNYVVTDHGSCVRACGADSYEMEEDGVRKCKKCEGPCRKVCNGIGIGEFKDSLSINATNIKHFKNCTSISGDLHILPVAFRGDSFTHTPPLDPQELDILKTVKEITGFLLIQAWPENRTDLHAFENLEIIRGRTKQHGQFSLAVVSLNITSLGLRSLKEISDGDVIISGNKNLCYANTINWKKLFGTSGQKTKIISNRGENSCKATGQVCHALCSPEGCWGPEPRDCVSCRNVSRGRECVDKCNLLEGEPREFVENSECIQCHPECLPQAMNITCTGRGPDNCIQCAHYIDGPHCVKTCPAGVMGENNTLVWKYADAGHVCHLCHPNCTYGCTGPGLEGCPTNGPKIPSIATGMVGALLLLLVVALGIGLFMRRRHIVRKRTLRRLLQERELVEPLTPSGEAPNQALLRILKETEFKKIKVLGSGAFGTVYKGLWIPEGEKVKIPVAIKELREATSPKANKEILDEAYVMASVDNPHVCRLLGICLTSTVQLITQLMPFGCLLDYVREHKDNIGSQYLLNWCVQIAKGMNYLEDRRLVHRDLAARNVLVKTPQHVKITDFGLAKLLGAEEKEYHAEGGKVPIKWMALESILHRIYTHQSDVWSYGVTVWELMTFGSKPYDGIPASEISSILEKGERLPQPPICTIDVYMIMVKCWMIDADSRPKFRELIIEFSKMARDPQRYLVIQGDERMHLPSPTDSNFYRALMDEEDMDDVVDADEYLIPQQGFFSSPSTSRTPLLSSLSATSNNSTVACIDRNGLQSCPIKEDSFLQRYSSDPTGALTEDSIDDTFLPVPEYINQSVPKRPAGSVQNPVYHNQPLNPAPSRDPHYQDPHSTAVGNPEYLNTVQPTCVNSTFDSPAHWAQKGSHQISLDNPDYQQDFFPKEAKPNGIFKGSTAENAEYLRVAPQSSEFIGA
Description: (a) An in vitro assay which determines the ability of a test compound to inhibit the enzyme receptor tyrosine kinase. Receptor tyrosine kinase was obtained in partially purified form from A-431 cells (derived from human vulval carcinoma) by procedures related to those described by Carpenter et al., J. Biol. Chem., 1979, 254, 4884, Cohen et al., J. Biol. Chem., 1982, 257, 1523 and by Braun et al., J. Biol. Chem., 1984, 259, 2051.
A-431 cells were grown to confluence using Dulbecco's modified Eagle's medium (DMEM) containing 5% fetal calf serum (FCS). The obtained cells were homogenised in a hypotonic borate/EDTA buffer at pH 10.1. The homogenate was centrifuged at 400 g for 10 minutes at 0°-4° C. The supernatant was centrifuged at 25,000 g for 30 minutes at 0°-4° C. […]
The test compound/EGF mixture solution (5 μl) was added to the test enzyme solution (10 μl) and the mixture was incubated at 0°-4° C. for 30 minutes. […] Radioactivity present in the filter paper was measured using a liquid scintillation counter (Sequence A). […]
Receptor tyrosine kinase inhibition was calculated as follows: [formula]
The extent of inhibition was then determined at a range of concentrations of test compound to give an IC50 value.

[1] = tested on: human naso-pharyngeal cancer cell line KB; assay: in vitro assay: inhibition of growth of the human naso-pharyngeal cancer cell line KB (Test (b)); format: cell-based; details: 72 h, EGF (10 ng/ml), 3 days, MTT
Description: (b) An in vitro assay which determines the ability of a test compound to inhibit the growth of the human naso-pharyngeal cancer cell line KB.
KB cells were seeded into wells at a density of 1×10^4 -1.5×10^4 cells per well and grown for 24 hours in DMEM supplemented with 5% FCS (charcoal-stripped). Cell growth was determined after incubation for 3 days by the extent of metabolism of MTT tetrazolium dye to furnish a bluish color. Cell growth was then determined in the presence of EGF (10 ng/ml) or in the presence of EGF (10 ng/ml) and a test compound at a range of concentrations. An IC50 value could then be calculated.

[2] = tested on: human mammary carcinoma which expresses epidermal growth factor (EGF) receptor tyrosine kinase; details: athymic nude mice; Toi et al., 1990; cited from earlier work
[3] = tested on: another carcinoma which does not express EGF receptor tyrosine kinase; details: Toi et al., 1990; cited from earlier work

IC50 (receptor tyrosine kinase) [nM]	IC50 [1] [nM]	Molecule	stimulation of liver hepatocyte growth (liver hepatocyte; control group of rats, on average)	ED50 (liver hepatocyte) [mg/kg]	effect on tumour growth, carcinoma expressing EGF receptor tyrosine kinase [2]	effect on tumour growth, carcinoma not expressing EGF receptor tyrosine kinase [3]
		TGFα: the growth factor TGFα	~5 -fold			
35	970	Cc1cccc(Nc2ncnc3cc4c(cc23)ncn4C)c1 [3-methyl-8-(3'-methylanilino)-3H-imidazo[4,5-g]-quinazoline]		< 5		
16	1190	Cc1cccc(Nc2ncnc3cc4c(cc23)[nH]c(=O)n4C)c1 [3-methyl-8-(3'-methylanilino)-1,2-dihydro-3H-imidazo[4,5-g]quinazolin-2-one]		< 12.5		
		O=CN/C=C/c1cc(O)ccc1O [erbstatin]			specifically attenuates the growth	without effect
